These results are taken from patent publication US20120053235A1, “Dihydromyricetin as an IKK-beta inhibitor used for treatment of arthritis, cancer and autoimmune conditions, and other diseases or disorders” (HONG KONG BAPTIST UNIVERSITY, priority 2010, published 2012).

Data set [1] has as its system collagen II induced arthritis in female Wistar rats. Kind of data set: Collagen II induced arthritis (CIA). Type of data set: in vivo. The method, then:
Collagen II solution (collagen, 2 mg/ml in 0.05M acetic acid, Chondrex 20022, Redmond, Wash., USA) was emulsified with an equal volume of incomplete Freund's adjuvant (IFA, Chondrex 7002, Redmond, Wash., USA) at 4° C. using a high-speed homogenizer. In the experiment of CIA, DMY was encapsulated with HP-CD (1:8.48) and then dissolved in the normal saline with drug concentrations of 50 and 100 mg/kg body weight. Rats were intradermally injected at the base of the tail with 100 μl collagen/incomplete Freund's adjuvant (IFA) emulsion containing […] of collagen II by the use of a glass syringe equipped with a locking hub and a 27-G needle. On day 7 after the primary immunization, all the rats were given a booster injection of 100 μg of collagen II in IFA. On the day after the onset of arthritis (day 13), the CIA rats were exposed to a daily intraperitoneal administration of DMY (50 and 100 mg/kg) until day 30 of the study. DEX (0.1 mg/kg, one per day), MTX (3.75 mg/kg, twice per week), and indomethacin (1 mg/kg, one per day) were used as positive reference drugs. The rats were inspected daily from the onset of arthritis characterized by edema and/or erythema in the paws. The incidence and severity of arthritis were evaluated using an arthritic scoring system, and bi-hind paw volumes and body weight were measured every 2 days started on the day when the arthritic signs were firstly visible (day 13). In the arthritic scoring system, lesions (i.e., the clinical arthritic signs) of the four paws of each rat were graded from 0 to 4 according to the extent of both edema and erythema of the periarticular tissues. As such, 16 was the potential maximum of the combined arthritic scores per animal. The hind paw volumes were measured using a plethysmometer chamber (7140 UGO. Basile, Comerio, Italy) and expressed as the mean volume change of both hind paws of the rats. Body weight of the rats was monitored with a 0.1 g precision balance (Sartorius AG, Goettingen, Germany). On day 30, all rats were sacrificed with liver, spleen and thymus being collected and weighted. The organ index for a specific organ is equal to the ratio of the weight of that organ to a body weight of 100 g.

Data set [2] deals with ear edema induced by dinitrofluorobenzene in male ICR mice. Nature of the data set: Delay-type hypersensitivity test (DNFB-induced ear edema). Type of data set: in vivo. Conditions: DTHT mice, topical treatment. The method, then: Male mice were sensitized through topical application of 20 μl of 0.5% (v/v) dinitrofluorobenzene (DNFB) in acetone onto the shaved abdomen on days 1 and 2. Challenge was then preformed in day 6 by applying DNFB (20 μl, 0.5%, v/v) on the left inner and outer ear surfaces of mice. DMY (at doses of 0.5, 1, 2 mg/ear) and DEX (0.025 mg/ear, Sigma-Aldrich) dissolved in acetone was topically applied (20 μl) to the ears at 2nd, 24th, 48th, and 72nd hour after the challenge. The mice were sacrificed by cervical dislocation, and then the same area of the ears was punched from each animal. Spleens and thymuses were isolated and weighted. The ear edema was calculated according to the differences between the weight of the right and left ears. The control group was treated only with DNFB.

Take `CN(Cc1cnc2nc(N)nc(N)c2n1)c1ccc(C(=O)N[C@@H](CCC(=O)O)C(=O)O)cc1` [MTX, reference compound]: the “organ indexes of spleen and/or thymus” value in data set [1] (rat, in vivo) is on record as “significant reduction”.
For the compound `C[C@@H]1C[C@H]2[C@@H]3CCC4=CC(=O)C=C[C@]4(C)[C@@]3(F)[C@@H](O)C[C@]2(C)[C@@]1(O)C(=O)CO` [DEX, reference compound], the body weight entry in data set [2] is “greatly reduced”. Besides, in data set [2] (FIGS. 9B and C), the spleen weight entry was “decreased” and the thymus weight result was “decreased”. The “organ indexes of spleen and/or thymus” value in data set [1] (rat, in vivo) is “significant reduction”.
Consider `COc1ccc2c(c1)c(CC(=O)O)c(C)n2C(=O)c1ccc(Cl)cc1` [indomethacin, reference compound], for which, in data set [1] (CIA rats, day 30, FIG. 10C), the “organ indexes of spleen and/or thymus” value is “significant reduction”. Moreover, the body weight result in data set [1] (CIA rats, FIG. 100D) is recorded as “significant reduction in body weight”.
